Data published in patent US12077608B2, “Stapled H2 pyrin peptides” (H. LEE MOFFITT CANCER CENTER AND RESEARCH INSTITUTE, INC., priority 2018, dated 2024).
Bridge positions count the residues as written; N and C are the ends. Square brackets hold non-standard residues; d marks the D form. Ends that are not written are not given here. Peptide text beside a SMILES is read from it. * marks the point of attachment. FITC = O=C1OC2(c3ccc(O)cc3Oc3cc(O)ccc32)c2ccc(NC(=S)*)cc21; S5 = C=CCCC[C@](C)(N)C(=O)O; Nle = CCCC[C@H](N)C(=O)O; βAla = NCCC(=O)O

Tests used:
[1] = target: T1, GST-NLRP3^PYD (Homo sapiens, UniProt Q96P20); assay: KD (μM) | GST-NLRP3^PYD
T1 construct: human NLRP3 (residues 3-110) was cloned into a pET-21b vector; made in house; host or cells: E. coli BL21 DE3
T1 sequence (Q96P20 3-110): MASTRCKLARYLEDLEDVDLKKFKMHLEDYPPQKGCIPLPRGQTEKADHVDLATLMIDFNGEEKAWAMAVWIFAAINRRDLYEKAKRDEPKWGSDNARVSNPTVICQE
From the text: (§1) Table printed on a drawing sheet, FIG. 10
Head of the field: KD (μM) | GST-NLRP3^PYD
(§2) The patent's description of the figure: FIG. 10 is a table showing the results from a fluorescence anisotropy binding assay to determine the accurate binding affinities of stapled peptides fPOP1-H2 (SEQ ID NO: 2), fSAH-POP1-1 (SEQ ID NO: 1), fSAH-POP1-3 (SEQ ID NO: 3), fSAH-POP1-4 (SEQ ID NO: 4), fSAH-POP1-5 (SEQ ID NO: 5), fSAH-POP1-6 (SEQ ID NO: 6), fSAH-POP1-7 (SEQ ID NO: 7), fSAH-POP1-8 (SEQ ID NO: 8), fSAH-POP1-9 (SEQ ID NO: 9), fSAH-POP1-10 (SEQ ID NO: 10), fSAH-POP1-11 (SEQ ID NO: 11), fSAH-POP1-12 (SEQ ID NO: 12), fSAH-POP1-13 (SEQ ID NO: 13), fSAH-POP1-14 (SEQ ID NO: 14), fSAH-POP1-15 (SEQ ID NO: 15), fSAH-POP1-16 (SEQ ID NO: 16), fSAH-POP1-17 (SEQ ID NO: 17), fSAH-POP1-18 (SEQ ID NO: 18), fSAH-POP1-19 (SEQ ID NO: 19), fSAH-POP1-20 (SEQ ID NO: 20), fSAH-POP1-21 (SEQ ID NO: 21), fSAH-POP1-22 (SEQ ID NO: 22), fSAH-POP1-23 (SEQ ID NO: 23), fSAH-POP1-24 (SEQ ID NO: 24), fSAH-POP1-25 (SEQ ID NO: 25), fSAH-POP1-26 (SEQ ID NO: 26), fSAH-POP1-27 (SEQ ID NO: 27), fSAH-POP1-28 (SEQ ID NO: 28), fSAH-POP1-29 (SEQ ID NO: 29), fSAH-POP1-30 (SEQ ID NO: 30), fSAH-POP1-31 (SEQ ID NO: 31).
(§3) First copying reader's note: Second part of the same figure; in the structures S5, NL (N with lowered L) and NH2 carry lowered signs, a drawn bracket joins the two S5 residues (staple), and the SEQ ID NO column is printed outside the table frame.
Where the first naming reader finds the target: head: GST-NLRP3^PYD

[2] = target: T2, GST-ASC^PYD (Homo sapiens, UniProt Q9ULZ3); assay: KD (μM) | GST-ASC^PYD
T2 construct: human ASC (residues 1-106) was cloned into a pGEX-4T1 vector; made in house; host or cells: E. coli BL21 DE3
T2 sequence (Q9ULZ3 1-106): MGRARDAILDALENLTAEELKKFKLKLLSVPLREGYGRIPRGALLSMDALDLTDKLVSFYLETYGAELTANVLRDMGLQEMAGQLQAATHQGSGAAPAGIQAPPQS
From the text: as §1
Head of the field: KD (μM) | GST-ASC^PYD
as §2, §3
Where the first naming reader finds the target: head: GST-ASC^PYD

[3] = test system: ASC speck formation in THP-1 ASC-GFP cells; assay: ASC speck assay, live-cell imaging; type: cell-based, Human; settings: for ASC speck formation remaining with inhibitor: 5 μM peptide, nigericin at 5 μM gives 38%
Protocol: ASC speck is a hallmark of inflammasome formation (Dick et al., 2016; Hoss et al., 2017) and observable by microscopy (Doyle et al., 2012; Stutz et al., 2013). THP-1 ASC-GFP cells stably expressing the ASC-GFP fusion protein (InvivoGen Catalog #: thp-ascgfp) were used to visualize the inhibitory effect of SAH-POP1-4 on ASC specks formation (Fernandes-Alnemri et al., 2007).
Experimental Procedure for ASC Speck Assay. THP1 ASC-GFP cells were seeded at 2×10^6/ml (0.7-1 mL) in RPMI1640 medium with 10% FCS in FluoroDish (FD35-100) and cultivated in the presence of 50 nM phorbol-12-myristate-13-acetate (PMA) for 24 h, then media was replaced by fresh media and incubated for 24 h. Then cells were stimulated with 200 ng/ml LPS from E. coli (sigma) for 3 h. The media was removed and replaced with serum-free medium (OptiMEM) containing DMSO (1:1,000), 20 μM inhibitors for 30 min. […] Control samples were incubated with media lacking LPS or nigericin. Then, ASC specks were tested by confocal microscopy SP8 (Leica Microsystems).
ASC speck is the hallmark of inflammasome formation and observable by microscopy. THP-1 ASC-GFP cells stably expressing the ASC-GFP fusion protein (InvivoGen Catalog #: thp-ascgfp) were used to visualize the inhibitory effect of SAH-POP1-17 on ASC specks formation (Fernandes-Alnemri et al., 2007). […] SAH-POP1-17 at 5 μM inhibited ASC speck formation to 4%, and SAH-POP1-18 at 5 μM inhibited ASC speck formation to 8%.

[4] = Circular dichroism (CD) secondary structure of the peptides; type: physicochemical; settings: aqueous solution; 100 μM peptide in 10 mM potassium phosphate, 100 mM potassium fluoride buffer (pH=7.5)
Protocol: Circular dichroism (CD) was used to determine the secondary structure of the peptides. […] Hydrocarbon stapling promoted α-helix contents with SAH-POP1-4 and SAH-POP1-8 having the highest in aqueous solution.
CD spectra were recorded on an AVIV Model 215 Circular Dichroism Spectrometer. Each spectrum was collected with the wavelength between 190 to 260 nm, 0.5 nm increments, and 0.5 s averaging time using a 1-mm path length cell. The peptide concentration was 100 μM in 10 mM potassium phosphate and 100 mM potassium fluoride buffer (pH=7.5). The studied peptides were completely dissolved in this buffer. CD spectra were initially plotted as wavelength versus millidgree, the default output of the instrument. Once the precise peptide concentration was confirmed, the mean residue ellipticity [Θ] was calculated for the y-axis.

Compound | Kd [1] [µM] | Kd [2] [µM] | further results
CCCC[C@H](NC(=O)[C@H](Cc1c[nH]c2ccccc12)NC(=O)[C@H](CCC(N)=O)NC(=O)[C@]1(C)CCCC=CCCC[C@](C)(NC(=O)[C@H](CCC(N)=O)NC(=O)CCNC(=S)Nc2ccc3c(c2)C(=O)OC32c3ccc(O)cc3Oc3cc(O)ccc32)C(=O)N[C@@H](CO)C(=O)N[C@@H](CCCNC(=N)N)C(=O)N[C@@H](CCCNC(=N)N)C(=O)N1)C(=O)N[C@@H](CCC(N)=O)C(=O)N[C@@H](Cc1c[nH]c2ccccc12)C(=O)N[C@H](C(=O)N[C@@H](C)C(N)=O)[C@@H](C)O [fSAH-POP1-26] ({FITC-βAla}-Q[S5]SRR[S5]QW[Nle]QWTA-NH2; staple 2-6) | 11 ± 1.1 | 5 ± 0.79 | 
CCCC[C@H](NC(=O)[C@H](Cc1c[nH]c2ccccc12)NC(=O)[C@H](CCCCN)NC(=O)[C@]1(C)CCCC=CCCC[C@](C)(NC(=O)[C@H](CCC(N)=O)NC(=O)CCNC(=S)Nc2ccc3c(c2)C(=O)OC32c3ccc(O)cc3Oc3cc(O)ccc32)C(=O)N[C@@H](CO)C(=O)N[C@@H](CCCNC(=N)N)C(=O)N[C@@H](CCCNC(=N)N)C(=O)N1)C(=O)N[C@@H](CCC(N)=O)C(=O)N[C@@H](Cc1c[nH]c2ccccc12)C(=O)N[C@H](C(=O)N[C@@H](C)C(N)=O)[C@@H](C)O [fSAH-POP1-27] ({FITC-βAla}-Q[S5]SRR[S5]KW[Nle]QWTA-NH2; staple 2-6) | 7.9 ± 1.1 | 3.9 ± 0.68 | 
CCCC[C@H](NC(=O)[C@H](Cc1c[nH]c2ccccc12)NC(=O)[C@H](CCC(N)=O)NC(=O)[C@]1(C)CCCC=CCCC[C@](C)(NC(=O)[C@H](CCC(N)=O)NC(=O)CCNC(=S)Nc2ccc3c(c2)C(=O)OC32c3ccc(O)cc3Oc3cc(O)ccc32)C(=O)N[C@@H](CC(C)C)C(=O)N[C@@H](CCCNC(=N)N)C(=O)N[C@@H](CCCNC(=N)N)C(=O)N1)C(=O)N[C@@H](CC(C)C)C(=O)NCC(=O)N[C@H](C(=O)N[C@@H](C)C(N)=O)[C@@H](C)O [fSAH-POP1-28] ({FITC-βAla}-Q[S5]LRR[S5]QW[Nle]LGTA-NH2; staple 2-6) | 7.7 ± 1.5 | 7.2 ± 1.1 | 
CCCC[C@H](NC(=O)[C@H](Cc1c[nH]c2ccccc12)NC(=O)[C@H](CCC(N)=O)NC(=O)[C@]1(C)CCCC=CCCC[C@](C)(NC(=O)[C@H](CCC(N)=O)NC(=O)CCNC(=S)Nc2ccc3c(c2)C(=O)OC32c3ccc(O)cc3Oc3cc(O)ccc32)C(=O)N[C@@H](CC(C)C)C(=O)N[C@@H](CCCNC(=N)N)C(=O)N[C@@H](CCCNC(=N)N)C(=O)N1)C(=O)N[C@@H](CC(C)C)C(=O)N[C@@H](CC(=O)O)C(=O)N[C@H](C(=O)N[C@@H](C)C(N)=O)[C@@H](C)O [fSAH-POP1-29] ({FITC-βAla}-Q[S5]LRR[S5]QW[Nle]LDTA-NH2; staple 2-6) | 6 ± 0.92 | 5.5 ± 0.69 | 
CCCC[C@H](NC(=O)[C@H](Cc1c[nH]c2ccccc12)NC(=O)[C@H](CCC(N)=O)NC(=O)[C@]1(C)CCCC=CCCC[C@](C)(NC(=O)[C@H](CCC(N)=O)NC(=O)CCNC(=S)Nc2ccc3c(c2)C(=O)OC32c3ccc(O)cc3Oc3cc(O)ccc32)C(=O)N[C@@H](CC(C)C)C(=O)N[C@@H](CCCNC(=N)N)C(=O)N[C@@H](CCCNC(=N)N)C(=O)N1)C(=O)N[C@@H](CC(C)C)C(=O)N[C@@H](CC(N)=O)C(=O)N[C@H](C(=O)N[C@@H](C)C(N)=O)[C@@H](C)O [fSAH-POP1-30] ({FITC-βAla}-Q[S5]LRR[S5]QW[Nle]LNTA-NH2; staple 2-6) | 6.7 ± 1.2 | 7.5 ± 1.1 | 
CCCC[C@H](NC(=O)[C@H](Cc1c[nH]c2ccccc12)NC(=O)[C@H](CCC(N)=O)NC(=O)[C@]1(C)CCCC=CCCC[C@](C)(NC(=O)[C@H](CCC(N)=O)NC(=O)CCNC(=S)Nc2ccc3c(c2)C(=O)OC32c3ccc(O)cc3Oc3cc(O)ccc32)C(=O)N[C@@H](CC(C)C)C(=O)N[C@@H](CCCNC(=N)N)C(=O)N[C@@H](CCCNC(=N)N)C(=O)N1)C(=O)N[C@@H](CC(C)C)C(=O)N[C@@H](CO)C(=O)N[C@H](C(=O)N[C@@H](C)C(N)=O)[C@@H](C)O [fSAH-POP1-31] ({FITC-βAla}-Q[S5]LRR[S5]QW[Nle]LSTA-NH2; staple 2-6) | 4.7 ± 0.54 | 7.8 ± 1.1 | 
CO[C@@H]1C[C@@H](C[C@H]2CC[C@H](C)[C@H]([C@@H](C)C(=O)O)O2)O[C@]2(O[C@](C)([C@H]3CC[C@@](C)([C@@H]4O[C@@H]([C@H]5O[C@@](O)(CO)[C@H](C)C[C@@H]5C)C[C@@H]4C)O3)C[C@H]2C)[C@@H]1C [nigericin, reference compound] |  |  | activation of ASC speck formation ([3]; nigericin at 2 μM): activated ASC speck formation; ASC speck formation activated ([3]; nigericin at 5 μM, no inhibitor): 38%
POP1-H2: Reference peptide, unstapled, amino acid sequence EELKKFKMKLGTV [reference compound] |  |  | α-helical structure / α-helix contents by circular dichroism [4]: does not exhibit α-helical structure
SAH-POP1-17: Stapled peptide synthesized by FIG. 11, SEQ ID NO: 44 (QXLRRXQWXLWTA; hydrocarbon staple; (2)..(2) X= S5=(S)-2-(4-pentenyl)alanineS5, the two Xs are also directly connected by a double bond; (6)..(6) X= S5=(S)-2-(4-pentenyl)alanineS5, the two Xs are also directly connected by a double bond; (9)..(9) X= NL = norleucine) |  |  | ASC speck formation remaining with inhibitor [3]: 4%
SAH-POP1-18: Stapled peptide synthesized by FIG. 11, SEQ ID NO: 45 (Q[S5]LRR[S5]QWFLWTA-NH2; staple 2-6; N-terminus assumed; SMILES CC(C)C[C@H](NC(=O)[C@H](Cc1ccccc1)NC(=O)[C@H](Cc1c[nH]c2ccccc12)NC(=O)[C@H](CCC(N)=O)NC(=O)[C@]1(C)CCCC=CCCC[C@](C)(NC(=O)[C@@H](N)CCC(N)=O)C(=O)N[C@@H](CC(C)C)C(=O)N[C@@H](CCCNC(=N)N)C(=O)N[C@@H](CCCNC(=N)N)C(=O)N1)C(=O)N[C@@H](Cc1c[nH]c2ccccc12)C(=O)N[C@H](C(=O)N[C@@H](C)C(N)=O)[C@@H](C)O) |  |  | ASC speck formation remaining with inhibitor [3]: 8%
